From the supplement of paper PMC10307832

Assays:
Assay in all cases: relative viability (nuclei count vs DMSO), 5 days (fraction); higher = more cells survive
AZD6482 + Decitabine = compound: Cc1cc([C@@H](C)Nc2ccccc2C(=O)O)c2nc(N3CCOCC3)cc(=O)n2c1 [AZD6482] + Nc1ncn([C@H]2C[C@H](O)[C@@H](CO)O2)c(=O)n1 [Decitabine] (partner 2 µM)
Procedure, shortened: (§1)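 Dosing by pin tool came one day after lung cancer cell lines were seeded in 1536-well plates, using either one drug or a fixed anchor-drug dose plus five library-drug doses (not always all listed) in √10 steps. After 5 days, nuclei were counted on 4× images. Relative viability is treated-well nuclei count divided by vehicle-well nuclei count, and values are medians of duplicate plates.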

[1] = compound: COc1cc2nc(N3CCCN(C)CC3)nc(NC3CCN(Cc4ccccc4)CC3)c2cc1OC + O=C(c1cc(Cc2n[nH]c(=O)c3ccccc23)ccc1F)N1CCN(C(=O)C2CC2)CC1 [Olaparib] (partner 8 µM)
Procedure, shortened: as §1

AZD6482 + Linsitinib = compound: Cc1cc([C@@H](C)Nc2ccccc2C(=O)O)c2nc(N3CCOCC3)cc(=O)n2c1 [AZD6482] + C[C@]1(O)C[C@@H](c2nc(-c3ccc4ccc(-c5ccccc5)nc4c3)c3c(N)nccn32)C1 [Linsitinib] (partner 1 µM)
Procedure, shortened: as §1

[2] = compound: COc1cc2nc(N3CCCN(C)CC3)nc(NC3CCN(Cc4ccccc4)CC3)c2cc1OC + CCNC(=O)c1noc(-c2cc(C(C)C)c(O)cc2O)c1-c1ccc(CN2CCOCC2)cc1 [Luminespib] (partner 0.01 µM)
Procedure, shortened: as §1

Row | Cell Line | relative viability (AZD6482 + Decitabine; first compound 0.08 µM) | relative viability (AZD6482 + Decitabine; first compound 0.253 µM) | relative viability (AZD6482 + Decitabine; first compound 0.8 µM) | relative viability (AZD6482 + Decitabine; first compound 2.53 µM) | relative viability (AZD6482 + Decitabine; first compound 8 µM) | relative viability ([1]; first compound 0.2 µM) | relative viability ([1]; first compound 0.6325 µM) | relative viability ([1]; first compound 2 µM) | relative viability ([1]; first compound 6.325 µM) | relative viability (AZD6482 + Linsitinib; first compound 0.08 µM) | relative viability (AZD6482 + Linsitinib; first compound 0.253 µM) | relative viability (AZD6482 + Linsitinib; first compound 0.8 µM) | relative viability (AZD6482 + Linsitinib; first compound 2.53 µM) | relative viability (AZD6482 + Linsitinib; first compound 8 µM) | relative viability ([2]; first compound 0.2 µM) | relative viability ([2]; first compound 0.6325 µM) | relative viability ([2]; first compound 2 µM) | relative viability ([2]; first compound 6.325 µM)
1 | 201T | 0.855 | 0.763 | 0.844 | 0.816 | 0.812 | 0.849 | 0.853 | 0.875 | 0.802 | 1.03 | 0.969 | 1.01 | 0.808 | 0.867 | 1.09 | 1.12 | 1.1 | 1.08
2 | A549 | 0.27 | 0.12 | 0.209 | – | 0.347 | 0.309 | 0.374 | 0.206 | 0.368 | 0.478 | 0.347 | 0.466 | – | 0.432 | – | – | – | –
3 | A-427 | 0.479 | 0.53 | 0.547 | 0.512 | 0.483 | 0.708 | 0.705 | 0.833 | 0.768 | 1.02 | 1.1 | 1.17 | 0.951 | 1.1 | 0.934 | 0.784 | 0.8 | 0.997
4 | ABC-1 | 0.902 | 1.14 | 0.985 | 1.26 | 0.947 | 1.17 | 0.768 | 0.983 | 0.915 | 0.611 | 0.801 | 0.81 | 0.521 | 0.815 | 0.588 | 0.52 | 0.512 | 0.737
5 | BEN | 0.621 | 0.533 | 0.767 | 0.509 | 0.581 | 1.01 | 1.07 | 1.12 | 1.07 | 0.884 | 0.93 | 0.988 | 0.717 | 0.85 | 0.415 | 0.737 | 0.264 | 0.516
6 | CAL-12T | – | – | – | – | – | 0.676 | 0.689 | 0.8 | 0.699 | 0.711 | 0.604 | 0.632 | 0.273 | 0.445 | 0.441 | 0.308 | 0.337 | 0.28
7 | COR-L23 | 0.418 | 0.386 | 0.456 | 0.396 | 0.366 | 0.348 | 0.38 | 0.414 | 0.339 | 0.595 | 0.933 | 1.03 | 0.565 | 0.686 | 0.752 | 0.731 | 0.761 | 0.614
8 | COR-L 105 | 0.67 | 0.68 | 0.628 | 0.601 | 0.559 | 0.632 | 0.626 | 0.624 | 0.372 | 0.635 | 0.779 | 0.783 | 0.553 | 0.603 | 0.948 | 0.899 | 1.02 | 0.469
9 | Calu-6 | – | – | – | – | – | 0.598 | 0.542 | 0.591 | 0.537 | 0.726 | 0.889 | 0.89 | 0.701 | 0.899 | – | – | – | –
10 | ChaGo-K-1 | 0.502 | 0.494 | 0.489 | 0.481 | 0.534 | 0.386 | 0.44 | 0.375 | 0.39 | – | – | – | – | – | 0.569 | 0.671 | 0.74 | 0.527
11 | EBC-1 | – | – | – | – | – | 0.698 | 0.647 | 0.757 | 0.5 | 0.559 | 0.76 | 0.788 | 0.348 | 0.408 | – | – | – | –
12 | EKVX | 0.334 | 0.278 | 0.312 | 0.266 | 0.244 | 0.838 | 0.873 | 0.808 | 0.776 | 0.716 | 0.6 | 0.646 | 0.362 | 0.544 | 0.829 | 0.878 | 0.831 | 0.888
13 | EMC-BAC-2 | 0.938 | 0.956 | 0.994 | 0.778 | 0.908 | 0.494 | 0.406 | 0.438 | 0.511 | 0.744 | 0.681 | 0.781 | 0.529 | 0.587 | 1.09 | 1.17 | 1.2 | 1.14
14 | EPLC-272H | 0.313 | 0.325 | 0.321 | 0.216 | 0.341 | 0.738 | 0.888 | 0.767 | 0.329 | 0.999 | – | 0.898 | 0.667 | 0.537 | 0.228 | 0.736 | 0.262 | 0.432
15 | H3255 | 0.474 | 0.531 | 0.539 | 0.388 | 0.472 | 0.592 | 0.552 | 0.541 | 0.562 | 0.919 | 0.907 | 0.945 | 0.602 | 0.729 | 1.14 | 0.852 | 0.878 | 0.898
16 | HARA | 0.495 | 0.511 | 0.455 | 0.43 | 0.602 | 0.79 | 1.1 | 0.832 | 1.05 | 0.691 | 0.974 | 1.11 | – | 0.775 | 0.703 | 0.467 | 0.744 | 0.736
17 | HCC-15 | 0.648 | 0.614 | 0.571 | 0.488 | 0.556 | 0.738 | 0.674 | 0.754 | 0.695 | 0.803 | 0.894 | 0.858 | 0.812 | 0.922 | 0.174 | 0.205 | 0.342 | 0.241
18 | HCC-44 | 0.895 | 0.937 | 0.978 | 1 | 0.859 | 0.974 | 1.02 | 0.953 | 0.977 | 0.413 | 0.527 | 0.429 | 0.539 | 0.362 | 0.96 | 1.08 | 1.34 | 1.34
19 | HCC-78 | 0.555 | 0.462 | 0.646 | 0.474 | 0.442 | 0.944 | 0.66 | 0.787 | 0.831 | 0.285 | 0.209 | 0.223 | 0.214 | 0.236 | – | – | – | –
20 | HCC-366 | 0.309 | 0.302 | 0.313 | 0.304 | 0.345 | 0.451 | 0.304 | 0.376 | 0.294 | 0.383 | 0.438 | 0.477 | 0.151 | 0.141 | – | – | – | –
